Experimental data published in the supplement of paper PMC10307832.

What was measured:
Assay in all cases: relative viability (nuclei count vs DMSO), 5 days (fraction); higher = more cells survive
[1] = compound: C1CNCCC1C2=CC(=NN2)C3=CC=NC=C3 + CCNC(=O)c1noc(-c2cc(C(C)C)c(O)cc2O)c1-c1ccc(CN2CCOCC2)cc1 [Luminespib] (partner 0.01 µM)
Method in brief: (§1)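 Relative viability was taken as the ratio of nuclei in treated wells to nuclei in vehicle wells. Lung cancer cell lines in 1536-well plates received compounds by pin tool one day after seeding, either one drug alone or a fixed anchor-drug dose plus five library-drug doses (not always all listed) in √10 steps. Nuclei were counted on 4× images after 5 days of treatment, and values are medians of duplicate plates.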

[2] = compound: C1CNCCC1C2=CC(=NN2)C3=CC=NC=C3 + Cc1nc(Nc2ncc(C(=O)Nc3c(C)cccc3Cl)s2)cc(N2CCN(CCO)CC2)n1 [Dasatinib] (partner 0.075 µM)
Method in brief: as §1

[3] = compound: C[C@@H](N)c1ccc(C(=O)Nc2ccnc3[nH]ccc23)cc1 + COc1cccc2cc(-c3nc([C@H]4CC[C@H](C(=O)O)CC4)n4ncnc(N)c34)[nH]c12 [OSI-027] (partner 0.5 µM)
Method in brief: as §1

Tanzisertib + Vorinostat = compound: O[C@H]1CC[C@H](Nc2ncc3nc(Nc4c(F)cc(F)cc4F)n([C@H]4CCOC4)c3n2)CC1 [Tanzisertib] + O=C(CCCCCCC(=O)Nc1ccccc1)NO [Vorinostat] (partner 1 µM)
Method in brief: as §1

Row | Cell Line | relative viability ([1]; first compound 0.08 µM) | relative viability ([1]; first compound 0.8 µM) | relative viability ([1]; first compound 2.53 µM) | relative viability ([1]; first compound 8 µM) | relative viability ([2]; first compound 0.08 µM) | relative viability ([2]; first compound 0.8 µM) | relative viability ([2]; first compound 2.53 µM) | relative viability ([2]; first compound 8 µM) | relative viability ([3]; first compound 0.04 µM) | relative viability ([3]; first compound 0.1265 µM) | relative viability ([3]; first compound 0.4 µM) | relative viability ([3]; first compound 1.265 µM) | relative viability ([3]; first compound 4 µM) | relative viability (Tanzisertib + Vorinostat; first compound 0.08 µM) | relative viability (Tanzisertib + Vorinostat; first compound 0.253 µM) | relative viability (Tanzisertib + Vorinostat; first compound 0.8 µM) | relative viability (Tanzisertib + Vorinostat; first compound 2.53 µM) | relative viability (Tanzisertib + Vorinostat; first compound 8 µM)
1 | NCI-H647 | 0.151 | 0.21 | 0.157 | 0.101 | 0.176 | 0.169 | 0.187 | 0.161 | 0.597 | 0.611 | 0.586 | 0.574 | 0.501 | 0.486 | 0.569 | 0.549 | 0.661 | 1.1
2 | NCI-H650 | 0.65 | 0.705 | 0.958 | 0.744 | 0.468 | 0.45 | 0.5 | 0.428 |  | 0.508 | 0.503 | 0.488 | 0.421 | 0.404 | 0.421 | 0.432 | 0.45 | 0.282
3 | NCI-H661 | 0.93 | 0.915 | 0.934 | 0.848 | 0.896 | 0.839 | 1.05 | 0.817 | 0.754 | 0.682 | 0.636 | 0.593 | 0.552 | 0.799 | 0.724 | 0.798 | 0.859 | 0.797
4 | NCI-H727 | 0.27 | 0.693 | 0.453 | 0.36 | 0.489 | 0.5 | 0.33 | 0.328 | 0.832 | 0.68 | 0.719 | 0.676 | 0.852 | 1.18 | 1.26 | 1.25 | 1.04 | 1.12
5 | NCI-H838 | 0.315 | 0.355 | 0.281 | 0.302 | 0.308 | 0.295 | 0.277 | 0.3 | 0.395 | 0.45 | 0.413 | 0.339 | 0.253 | 0.745 | 0.73 | 0.733 | 0.676 | 0.651
6 | NCI-H1355 | 0.64 | 0.818 | 0.696 | 0.766 | 0.651 | 0.718 | 0.798 | 0.695 | 0.459 | 0.415 | 0.432 | 0.343 | 0.379 | 0.722 | 0.608 | 0.642 | 0.67 | 0.628
7 | NCI-H1395 | 0.771 | 0.692 | 0.563 | 0.764 | 0.399 | 0.345 | 0.381 | 0.471 | 0.637 | 0.739 | 0.685 | 0.389 | 0.588 | 0.642 | 1.13 | 0.768 | 0.72 | 0.481
8 | NCI-H1437 | 1.1 | 1.16 | 1.09 | 1.14 | 0.464 | 0.381 | 0.406 | 0.45 | 0.947 | 0.838 | 0.853 | 1 | 0.919 | 0.876 | 0.896 | 0.88 | 0.895 | 0.97
9 | NCI-H1650 | 0.246 | 0.209 | 0.201 | 0.223 | 0.262 | 0.257 | 0.356 | 0.35 | 0.825 | 0.773 | 0.761 | 0.707 | 0.664 | 0.551 | 0.601 | 0.501 | 0.625 | 0.491
10 | NCI-H1651 | 0.719 | 1.11 | 0.807 | 0.838 | 0.381 | 0.404 | 0.348 | 0.486 | 0.901 | 0.817 | 0.888 | 1.05 | 0.802 | 0.575 | 0.603 | 0.513 | 0.517 | 0.549
11 | NCI-H1666 | 0.921 | 1.11 | 1.05 | 1.01 | 0.718 | 0.941 | 0.821 | 0.783 | 0.917 | 0.979 | 0.935 | 1.14 | 1.06 | 1.03 | 0.988 | 1.11 | 1.01 | 1.05
12 | NCI-H1734 | 0.183 | 0.201 | 0.195 | 0.219 | 0.424 | 0.533 | 0.527 | 0.529 | 0.627 | 0.611 | 0.549 | 0.315 | 0.563 | 0.966 | 0.781 | 0.756 | 0.906 | 0.81
13 | NCI-H1755 | 0.301 |  | 0.417 | 0.64 | 0.483 |  | 0.474 | 0.399 | 0.606 | 0.815 | 0.758 | 0.638 | 0.587 | 0.756 | 0.791 | 0.828 | 0.624 | 0.79
14 | NCI-H1793 | 0.197 | 0.169 | 0.182 | 0.186 | 0.335 | 0.357 | 0.352 | 0.404 | 0.322 | 0.284 | 0.254 |  | 0.355 | 0.787 | 0.789 | 0.748 | 0.641 | 0.551
15 | NCI-H1915 | 0.746 | 0.876 | 0.791 | 0.734 | 0.286 | 0.311 | 0.316 | 0.308 | 0.562 | 0.64 | 0.63 |  | 0.489 | 0.569 | 0.535 | 0.46 | 0.503 | 0.487
16 | NCI-H1944 | 0.665 | 0.691 | 0.81 | 0.693 | 0.201 | 0.206 | 0.231 | 0.232 | 0.409 | 0.368 | 0.397 | 0.26 | 0.384 | 0.607 | 0.562 | 0.633 | 0.611 | 0.533
17 | NCI-H1975 | 0.166 | 0.214 | 0.193 | 0.254 | 0.405 | 0.417 | 0.492 | 0.413 | 0.799 | 0.876 | 0.666 | 0.673 | 0.533 | 0.743 | 0.761 | 0.71 | 0.704 | 0.656
18 | NCI-H1993 | 0.748 | 0.918 | 0.79 | 0.981 | 0.538 | 0.541 | 0.56 | 0.667 | 0.529 | 0.556 | 0.574 | 0.577 | 0.603 | 0.901 | 0.928 | 1.1 | 0.769 | 0.77
19 | NCI-H2009 | 0.995 | 1.09 | 1.02 | 1.01 | 0.323 | 0.265 | 0.318 | 0.31 | 0.675 | 0.77 | 0.655 | 0.714 | 0.624 | 0.728 | 0.743 | 0.773 | 0.753 | 0.729
20 | NCI-H2023 | 0.709 | 0.878 | 0.867 | 0.832 | 0.48 | 0.661 | 0.583 | 0.567 | 0.475 | 0.435 | 0.569 | 0.476 | 0.509 | 0.826 | 0.502 | 0.803 | 0.555 | 0.625
21 | NCI-H2085 | 0.412 | 0.38 | 0.498 | 0.435 | 0.244 |  | 0.296 | 0.215 | 0.744 | 0.816 | 0.77 | 0.397 | 0.717 |  | 0.801 | 0.917 | 0.828 | 0.879
22 | NCI-H2087 | 0.145 | 0.178 | 0.281 | 0.254 | 0.662 | 1.02 | 0.75 | 0.84 | 1.02 | 0.721 | 0.924 |  | 0.613 | 0.862 | 0.701 | 0.772 | 0.797 | 1.14
23 | NCI-H2126 | 0.813 | 0.975 | 0.959 | 0.917 | 0.504 | 0.613 | 0.655 | 0.661 | 0.9 | 0.654 | 0.797 |  | 0.944 | 0.86 | 0.758 | 0.85 | 0.727 | 0.454
24 | NCI-H2170 | 0.534 | 0.739 | 0.737 | 0.567 | 0.536 | 0.52 | 0.574 | 0.643 | 0.775 | 0.739 | 0.747 | 0.515 | 0.718 | 0.806 | 0.864 | 0.874 | 0.82 | 0.705
25 | NCI-H2228 | 0.121 | 0.162 | 0.189 | 0.161 | 0.594 | 0.572 | 0.531 | 0.484 | 0.581 | 0.618 | 0.65 | 0.786 | 0.543 | 1.03 | 0.626 | 0.777 | 0.728 | 0.518
26 | NCI-H2342 | 0.716 | 0.781 | 0.888 | 0.857 | 0.343 | 0.268 | 0.357 | 0.41 | 0.711 | 0.694 | 0.763 | 0.655 | 0.675 | 0.801 | 0.847 | 0.816 | 0.765 | 0.754
27 | NCI-H2347 | 0.366 | 0.5 | 0.511 | 0.564 | 0.352 | 0.288 | 0.307 | 0.332 | 0.502 | 0.494 | 0.414 |  | 0.631 | 0.744 | 0.628 | 0.696 | 0.588 | 0.463
28 | NCI-H2405 | 0.616 | 0.584 | 0.875 | 0.544 | 0.201 | 0.213 | 0.187 | 0.202 | 0.594 | 0.742 | 0.695 | 0.542 | 0.36 | 1.04 | 1.19 | 1.14 | 1.17 | 0.404
29 | NCI-H3122 | 0.109 | 0.114 | 0.1 | 0.104 | 0.605 | 0.879 | 0.983 | 0.859 | 1.2 | 1.14 | 1.06 |  | 1.1 | 1.37 | 1.09 | 0.932 | 1.09 | 1.12
30 | PC-3 [JPC-3] | 0.643 | 0.673 | 0.7 | 0.556 | 0.982 | 1.1 | 1.01 | 0.966 | 0.789 | 0.76 | 0.783 | 0.775 | 0.792 | 0.835 | 1.18 | 1.04 | 0.748 | 0.445
